{"source": "paper PMC7083837", "about": "(Nature Communications, 2020)", "key": {"SERT R104K": {"biological_target": "T1, SERT R104K (Homo sapiens, UniProt P31645, R104K)", "T1 construct": "expressed in transfected cells; host or cells: COS-7", "T1 sequence (P31645 whole entry R104K)": "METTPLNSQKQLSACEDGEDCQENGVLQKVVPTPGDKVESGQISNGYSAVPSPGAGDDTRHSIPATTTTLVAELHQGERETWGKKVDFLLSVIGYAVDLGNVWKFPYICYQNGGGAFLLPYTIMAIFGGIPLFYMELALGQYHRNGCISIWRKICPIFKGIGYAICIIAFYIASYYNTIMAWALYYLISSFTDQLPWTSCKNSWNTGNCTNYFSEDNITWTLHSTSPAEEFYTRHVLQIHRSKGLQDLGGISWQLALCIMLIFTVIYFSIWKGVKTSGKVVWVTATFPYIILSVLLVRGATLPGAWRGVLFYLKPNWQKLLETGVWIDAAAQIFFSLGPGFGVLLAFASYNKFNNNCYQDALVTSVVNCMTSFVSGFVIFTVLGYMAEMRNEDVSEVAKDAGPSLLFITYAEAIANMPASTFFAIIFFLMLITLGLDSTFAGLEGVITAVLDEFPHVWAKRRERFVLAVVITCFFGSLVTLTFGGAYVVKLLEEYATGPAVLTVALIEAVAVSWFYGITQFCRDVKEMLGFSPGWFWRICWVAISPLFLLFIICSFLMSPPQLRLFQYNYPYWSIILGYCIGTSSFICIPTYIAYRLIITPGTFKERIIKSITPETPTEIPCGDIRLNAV", "assay": "[3H]IMI dissociation rate assay", "format": "binding", "conditions": "for [^3H]IMI dissociation relative to control (source data Fig 4B): R104K", "protocol": "All mutations were confirmed by DNA sequencing. The used primers were\nThe allosteric potency was calculated as previously described."}, "SERT WT [1]": {"biological_target": "T2, SERT WT (Homo sapiens, UniProt P31645)", "T2 construct": "expressed in transfected cells; host or cells: COS-7", "assay": "[3H]IMI competitive binding on COS-7 membranes", "protocol": "[^3H]S-CIT and [^3H]IMI competitive binding experiments were performed on membrane preparations of COS-7 cells transiently transfected with SERT WT. Membrane aliquots were mixed with membrane buffer containing 5–10 nM of either [^3H]S-CIT or [^3H]IMI and Lu AF60097 in the indicated concentrations to a final volume of 300 µL. The binding experiments were incubated 1 h at room temperature and subsequently filtered, washed and counted as described under ‘[^3H]IMI and [^3H]S-CIT dissociation rate assay’. Non-specific binding was determined by adding 5 µM paroxetine."}, "SERT WT [2]": {"biological_target": "T2, SERT WT", "assay": "[3H]5-HT uptake in intact COS-7 cells", "format": "cell-based", "design": "5-HT uptake: unit not given here", "conditions": "for 5-HT uptake: Fig 5B"}, "[3]": {"test_system": "extracellular 5-HT levels in rat hippocampus", "assay": "Microdialysis in ventral hippocampus of freely moving rats;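 as to extracellular 5-HT level: percent of mean basal level in three fractions before perfusion start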", "format": "in vivo", "design": "extracellular 5-HT level / AUC: unit not given here"}}, "note": "Where “and” joins values, the source holds several entries; their conditions need not be identical. Equal entries are not always repeated.", "data": [{"smiles": "NC(=O)c1ccc2c(c1)CO[C@@]2(CCCN1CCC(c2ccc3ccc(=O)[nH]c3c2)CC1)c1ccc(F)cc1", "note": "[Lu AF60097, (S)-1-(4-fluorophenyl)-1-(3-(4-(2-oxo-1,2-dihydroquinolin-7-yl)piperidin-1-yl)propyl)-1,3-dihydroisobenzofuran-5-carboxamide]", "values": [{"measurement": "[^3H]IMI dissociation relative to control (source data Fig 4B)", "setting": "SERT R104K; log conc -6.863", "value": "0.8956 and 0.6502 and 0.7387 and 0.7045"}, {"measurement": "[^3H]IMI dissociation relative to control (source data Fig 4B)", "setting": "SERT R104K; log conc -7.34", "value": "1.0439 and 0.7759 and 0.8174 and 0.7536"}, {"measurement": "[^3H]IMI dissociation relative to control (source data Fig 4B)", "setting": "SERT R104K; log conc -7.817", "value": "0.9753 and 0.7981 and 0.836 and 0.9683"}, {"measurement": "IC50", "setting": "SERT R104K; SERT R104K (TM1), read-out: Lu AF60097 allosteric potency ([^3H]IMI dissociation IC50)", "value": 630, "unit": "nM"}, {"measurement": "Displacement of [^3H]IMI in binding experiment", "setting": "SERT WT [1]; equilibrium binding, SERT WT membranes", "value": "not displaced"}, {"measurement": "Displacement of [3H]IMI binding (normalized bound, Fig S6)", "setting": "SERT WT [1]; log[Lu AF60097] -4.9586", "value": "0.8037 and 0.8081 and 0.979"}, {"measurement": "Displacement of [3H]IMI binding (normalized bound, Fig S6)", "setting": "SERT WT [1]; log[Lu AF60097] -5.2596", "value": "0.9221 and 1.029 and 1.04"}, {"measurement": "Displacement of [3H]IMI binding (normalized bound, Fig S6)", "setting": "SERT WT [1]; log[Lu AF60097] -5.5607", "value": "1.05 and 0.9989 and 1.0302"}, {"measurement": "Displacement of [3H]IMI binding (normalized bound, Fig S6)", "setting": "SERT WT [1]; log[Lu AF60097] -5.8617", "value": "1.118 and 1.161 and 1.01"}, {"measurement": "Displacement of [3H]IMI binding (normalized bound, Fig S6)", "setting": "SERT WT [1]; log[Lu AF60097] -6.1627", "value": "1.173 and 1.156 and 0.9563"}, {"measurement": "Displacement of [3H]IMI binding (normalized bound, Fig S6)", "setting": "SERT WT [1]; log[Lu AF60097] -6.4638", "value": "1.154 and 1.04 and 1.011"}, {"measurement": "Displacement of [3H]IMI binding (normalized bound, Fig S6)", "setting": "SERT WT [1]; log[Lu AF60097] -6.7648", "value": "1.061 and 1.088 and 0.8905"}, {"measurement": "Displacement of [3H]IMI binding (normalized bound, Fig S6)", "setting": "SERT WT [1]; log[Lu AF60097] -7.0658", "value": "1.098 and 0.9993 and 0.8339"}, {"measurement": "Displacement of [3H]IMI binding (normalized bound, Fig S6)", "setting": "SERT WT [1]; log[Lu AF60097] -7.3668", "value": "1.049 and 0.9798"}, {"measurement": "Displacement of [3H]IMI binding (normalized bound, Fig S6)", "setting": "SERT WT [1]; log[Lu AF60097] -7.6679", "value": "1.052 and 1.0159"}, {"measurement": "Vmax 5-HT", "setting": "SERT WT [2]; 10 nM Lu AF60097", "value": "1232 ± 48", "unit": "fmol/min"}, {"measurement": "Vmax 5-HT", "setting": "SERT WT [2]; 20 nM Lu AF60097", "value": "1279 ± 64", "unit": "fmol/min"}, {"measurement": "Vmax 5-HT", "setting": "SERT WT [2]; 40 nM Lu AF60097", "value": "1007 ± 58", "unit": "fmol/min"}, {"measurement": "Vmax 5-HT", "setting": "SERT WT [2]; 80 nM Lu AF60097", "value": "1361 ± 78", "unit": "fmol/min"}, {"measurement": "Vmax 5-HT", "setting": "SERT WT [2]; 160 nM Lu AF60097", "value": "1235 ± 34", "unit": "fmol/min"}, {"measurement": "Vmax 5-HT", "setting": "SERT WT [2]; 320 nM Lu AF60097", "value": "973 ± 25", "unit": "fmol/min"}, {"measurement": "Vmax 5-HT", "setting": "SERT WT [2]; 640 nM Lu AF60097", "value": "971 ± 21", "unit": "fmol/min"}, {"measurement": "inhibition at 0.027 µM", "setting": "SERT WT [2]; COS-7, read-out: Decrease (inhibition) of [^3H]5-HT uptake relative to control, IMI 4 nM, Lu AF60097 27 nM, alone or together", "value": "5 ± 1.8", "unit": "%"}, {"measurement": "5-HT uptake", "setting": "SERT WT [2]; 0.1474 µM 5HT, 10 nM AF60097", "value": "289.4 and 268.7 and 257.4 and 246.6 and 314.6"}, {"measurement": "5-HT uptake", "setting": "SERT WT [2]; 0.1474 µM 5HT, 20 nM AF60097", "value": "295.7 and 305.6 and 246.2 and 292.1 and 271.4"}, {"measurement": "5-HT uptake", "setting": "SERT WT [2]; 0.1474 µM 5HT, 80 nM AF60097", "value": "149 and 175.1 and 138.2 and 177.3 and 172.8"}, {"measurement": "5-HT uptake", "setting": "SERT WT [2]; 0.1474 µM 5HT, 160 nM AF60097", "value": "193.5 and 184.1 and 172.4 and 177.3 and 155.3"}, {"measurement": "5-HT uptake", "setting": "SERT WT [2]; 0.1474 µM 5HT, 320 nM AF60097", "value": "124.2 and 120.2 and 98.55 and 160.4 and 125"}, {"measurement": "5-HT uptake", "setting": "SERT WT [2]; 0.1474 µM 5HT, 640 nM AF60097", "value": "82.89 and 76.41 and 75.6 and 73.71"}, {"measurement": "5-HT uptake", "setting": "SERT WT [2]; 0.2395 µM 5HT, 10 nM AF60097", "value": "401.9 and 351.5 and 378.9 and 356.9 and 437.9"}, {"measurement": "5-HT uptake", "setting": "SERT WT [2]; 0.2395 µM 5HT, 20 nM AF60097", "value": "431.1 and 402.3 and 370.8 and 428 and 381.2"}, {"measurement": "5-HT uptake", "setting": "SERT WT [2]; 0.2395 µM 5HT, 80 nM AF60097", "value": "239.4 and 237.2 and 197.1 and 278.1 and 258.3"}, {"measurement": "5-HT uptake", "setting": "SERT WT [2]; 0.2395 µM 5HT, 160 nM AF60097", "value": "283.1 and 275.9 and 262.8 and 254.3 and 202.5"}, {"measurement": "5-HT uptake", "setting": "SERT WT [2]; 0.2395 µM 5HT, 320 nM AF60097", "value": "170.4 and 178.2 and 155 and 215.5 and 193.6"}, {"measurement": "5-HT uptake", "setting": "SERT WT [2]; 0.2395 µM 5HT, 640 nM AF60097", "value": "119.3 and 114.2 and 108 and 121.2"}, {"measurement": "5-HT uptake", "setting": "SERT WT [2]; 0.4844 µM 5HT, 10 nM AF60097", "value": 585}, {"measurement": "5-HT uptake", "setting": "SERT WT [2]; 0.4844 µM 5HT, 20 nM AF60097", "value": "624.2 and 642.2 and 563.4 and 555.8 and 512.1"}, {"measurement": "5-HT uptake", "setting": "SERT WT [2]; 0.4844 µM 5HT, 160 nM AF60097", "value": "469.4 and 426.6 and 404.6 and 365.9 and 356"}, {"measurement": "5-HT uptake", "setting": "SERT WT [2]; 0.4844 µM 5HT, 320 nM AF60097", "value": "301.6 and 284.3 and 264.9"}, {"measurement": "5-HT uptake relative to ctrl (ctrl = 100)", "setting": "SERT WT [2]; Fig 5C, 27 nM AF60097", "value": "100 and 97 and 96 and 91 and 88"}, {"measurement": "[^3H]5-HT uptake (in % of buffer/control)", "setting": "SERT WT [2]; IMI 4 nM, Lu AF60097 27 nM, alone or together", "value": "95 ± 1.8", "unit": "%"}, {"measurement": "Ki", "setting": "SERT WT [2]; SERT WT", "value": 220, "unit": "nM"}, {"measurement": "IC50", "setting": "SERT WT [2]; hSERT in COS-7 cells", "value": 207, "unit": "nM"}, {"measurement": "Maximum extracellular 5-HT level, % of basal level", "setting": "[3]; 1 µl (250 nM) injected in ventral hippocampus", "value": "602 ± 156", "unit": "%"}, {"measurement": "Hippocampal 5-HT level above saline", "setting": "[3]; 1 µl of 250 nM injected locally, after 2 h", "value": "about 6 fold"}, {"measurement": "extracellular 5-HT level", "setting": "[3]; Fig 6A, time 0", "value": "99.15 and 92.9 and 84.7 and 127.51 and 96.31 and 90.57"}, {"measurement": "extracellular 5-HT level", "setting": "[3]; Fig 6A, time -20", "value": "99.13 and 103.53 and 109.41 and 104.22 and 103.69 and 101.06"}, {"measurement": "extracellular 5-HT level", "setting": "[3]; Fig 6A, time -40, single animals", "value": "101.72 and 103.57 and 105.89 and 68.26 and 100 and 108.37"}, {"measurement": "AUC", "setting": "[3]; Fig 6B Inset, single animals", "value": "160 and 33 and 22 and 96 and 107 and 114 and 155 and 78 and 140 and 79 and 75 and 81 and 29 and 143 and 77"}, {"measurement": "extracellular 5-HT level", "setting": "[3]; Fig 6B, Time -40, single animals", "value": "98.41 and 131.26 and 120.63 and 87.45 and 121.36 and 138.4 and 108.61 and 82.38 and 85.26 and 67.86 and 55.86 and 116.12"}]}]}
